From patent US20130085064A1, “PESTICIDAL MIXTURES CONTAINING ISOXAZOLINE DERIVATIVES AND INSECTICIDE OR NEMATOICIDAL BIOLOGICAL AGENT” (priority 2010, published 2013)
“And” between values parts separate entries of the source, which are not always exact repeats. Equal entries are not always repeated.

Tests used:
Format in all cases: in vivo
[1] = test system: Spodoptera littoralis (Egyptian cotton leaf worm); assay: Spodoptera littoralis larvicide L1, feeding/contact, cotton leaf discs; conditions: single compound
Excerpt: (§1) The action to be expected E for a given active ingredient combination obeys the so-called COLBY formula and can be calculated as follows (COLBY, S.R. “Calculating synergistic and antagonistic responses of herbicide combination”. Weeds, Vol. 15, pages 20-22; 1967):
(§2) ppm=milligrams of active ingredient (=a.i.) per liter of spray mixture X=% action by active ingredient A) using p ppm of active ingredient Y=% action by active ingredient B) using q ppm of active ingredient.
(§3) According to COLBY, the expected (additive) action of active ingredients A)+B) using p+q ppm of active ingredient is
(§4) If the action actually observed (O) is greater than the expected action (E), then the action of the combination is super-additive, i.e. there is a synergistic effect. In mathematical terms the synergism factor SF corresponds to O/E. In the agricultural practice an SF of ≧1.2 indicates significant improvement over the purely complementary addition of activities (expected activity), while an SF of ≦0.9 in the practical application routine signals a loss of activity compared to the expected activity.
Spodoptera Littoralis (Egyptian Cotton Leaf Worm)
(Larvicide L1, Feeding/Contact)
Cotton leaf discs are placed on agar in Petri dishes and sprayed with test solutions in an application chamber. After drying, the leaf discs are infested with 10 L1 larvae. The samples are checked for mortality 5 days after treatment. 3 replicates per treatment were evaluated. (1 PPM=1 mg l^−1)

[2] = test system: Tetranychus urticae (two-spotted spider mite); assay: Tetranychus urticae bean leaf discs in 24-well microtiter plates, mixed population mortality; conditions: 8 days
Excerpt: as §1, §2, §3, §4
Tetranychus Urticae (Two-Spotted Spider Mite)
Bean leaf discs on agar in 24-well microtiter plates are sprayed with test solutions (DMSO). After drying, the leaf discs are infested with mite populations of mixed ages. 8 days later, discs are checked for mixed population mortality.

[3] = test system: Heliothis virescens (tobacco budworm); assay: Heliothis virescens eggs in 24-well microtiter plate on artificial diet, larval mortality
Excerpt: as §1, §2, §3, §4
Heliothis Virescens (Tobacco Budworm)
Eggs (0-24 h old) are placed in 24-well microtiter plate on artificial diet and treated with test solutions (DMSO) by pipetting. After an incubation period of 4 days, samples are checked for larval mortality.

[4] = test system: Heliothis virescens (tobacco budworm); assay: Heliothis virescens ovo-larvicide, feeding/contact, eggs on filter paper in Petri dishes; conditions: for activity on eggs: egg mortality, 7 days incubation; for AVERAGE DEAD IN % (LARVAE): single compound, 7 days
Excerpt: as §1, §2, §3, §4
Heliothis Virescens (Tobacco Budworm):
(Ovo-Larvicide, Feeding/Contact)
30-35 fresh eggs (0-24 h old), deposited on filter paper, are placed in Petri dishes on top of a layer of artificial diet and 0.8 ml of diluted test solutions are pipetted onto them. After an incubation period of 7 days, samples are checked for egg and larval mortality. 3 replicates per treatment were evaluated.

[5] = test system: Tetranychus urticae (two spotted spider mite); assay: Tetranychus urticae contact/feeding activity on bean plants, adult mortality
Excerpt: as §1, §2, §3, §4
Tetranychus Urticae (Two Spotted Spider Mite)
(Contact/Feeding Activity)
Bean plants are infested with mite populations of mixed ages. 1 day after infestation, plants are treated in a spray chamber with diluted test solutions. 1 and 8 days later, samples are checked for adult mortality. 2 replicates per treatment were evaluated.

Substance: abamectin
- AVERAGE DEAD IN % AFTER 5 DAYS ([1]; 0.4 PPM AI): 10% and 7%
- AVERAGE DEAD IN % AFTER 5 DAYS ([1]; 0.8 PPM AI): 13% and 10%
- AVERAGE DEAD IN % AFTER 5 DAYS ([1]; 1.6 PPM AI): 40% and 20%
- AVERAGE DEAD IN % ([2]; 0.0002 ppm alone): 0%
- AVERAGE DEAD IN % ([2]; 0.0004 ppm alone): 0%
- AVERAGE DEAD IN % ([2]; 0.0008 ppm alone): 0%
- AVERAGE DEAD IN % ([2]; 0.0015 ppm alone): 0%
- AVERAGE DEAD IN % ([2]; 0.003 ppm alone): 0%
- AVERAGE DEAD IN % ([2]; 0.006 ppm alone): 0%
- AVERAGE DEAD IN % ([2]; 0.0125 ppm alone): 0%
- AVERAGE DEAD IN % ([2]; 0.025 ppm alone): 0%
- AVERAGE DEAD IN % ([2]; 0.05 ppm alone): 85%
- AVERAGE DEAD IN % ([2]; 0.1 ppm alone): 85%
- AVERAGE DEAD IN % ([2]; Abamectin alone, 0.0002 ppm, Table 120): 0%
- AVERAGE DEAD IN % ([2]; Abamectin alone, 0.0004 ppm, Table 120): 0%
- AVERAGE DEAD IN % ([2]; Abamectin alone, 0.0008 ppm, Table 120): 0%
- AVERAGE DEAD IN % ([2]; Abamectin alone, 0.0015 ppm, Table 120): 0%
- AVERAGE DEAD IN % ([2]; Abamectin alone, 0.003 ppm, Table 120): 0%
- AVERAGE DEAD IN % ([2]; Abamectin alone, 0.006 ppm, Table 120): 0%
- AVERAGE DEAD IN % ([2]; Abamectin alone, 0.0125 ppm, Table 120): 0%
- AVERAGE DEAD IN % ([2]; Abamectin alone, 0.025 ppm, Table 120): 0%
- AVERAGE DEAD IN % ([2]; Abamectin alone, 0.05 ppm, Table 120): 70%
- AVERAGE DEAD IN % ([2]; Abamectin alone, 0.1 ppm, Table 120): 80%
- AVERAGE DEAD IN % ([3]; single compound at 0.2 ppm AI): 0%
- AVERAGE DEAD IN % ([3]; single compound at 0.4 ppm AI): 45%
- AVERAGE DEAD IN % ([3]; single compound at 0.8 ppm AI): 68%
- AVERAGE DEAD IN % ([3]; single compound at 1.6 ppm AI): 78%
- AVERAGE DEAD IN % ([3]; single compound at 3.2 ppm AI): 100%
- AVERAGE DEAD IN % ([3]; single compound at 6.4 ppm AI): 100%
- activity on eggs [4]: inactive
- AVERAGE DEAD IN % (LARVAE) ([4]; 0.025 ppm AI): 3%
- AVERAGE DEAD IN % (LARVAE) ([4]; 0.05 ppm AI): 37%
- AVERAGE DEAD IN % (LARVAE) ([4]; 0.1 ppm AI): 53%
- AVERAGE DEAD IN % AFTER 8 DAYS ([5]; 0.0015 ppm alone): 25%
- AVERAGE DEAD IN % AFTER 8 DAYS ([5]; 0.003 ppm alone): 20%
- AVERAGE DEAD IN % AFTER 8 DAYS ([5]; 0.006 ppm alone): 25%
- AVERAGE DEAD IN % AFTER 1 DAY ([5]; Abamectin alone 0.0015 ppm AI): 0%
- AVERAGE DEAD IN % AFTER 1 DAY ([5]; Abamectin alone 0.003 ppm AI): 0%
- AVERAGE DEAD IN % AFTER 1 DAY ([5]; Abamectin alone 0.006 ppm AI): 0%

Substance: emamectin benzoate
- AVERAGE DEAD IN % AFTER 5 DAYS ([1]; 0.003125 PPM AI): 20%
- AVERAGE DEAD IN % AFTER 5 DAYS ([1]; 0.00625 PPM AI): 23%
- AVERAGE DEAD IN % AFTER 5 DAYS ([1]; 0.0125 PPM AI): 30% and 27%
- AVERAGE DEAD IN % ([3]; single compound at 0.00075 ppm AI): 0%
- AVERAGE DEAD IN % ([3]; single compound at 0.0015 ppm AI): 0%
- AVERAGE DEAD IN % ([3]; single compound at 0.003 ppm AI): 0%
- AVERAGE DEAD IN % ([3]; single compound at 0.006 ppm AI): 0%
- AVERAGE DEAD IN % ([3]; single compound at 0.012 ppm AI): 55%
- AVERAGE DEAD IN % ([3]; single compound at 0.024 ppm AI): 93%
- activity on eggs [4]: inactive
- AVERAGE DEAD IN % (LARVAE) ([4]; 0.0015 ppm AI): 5%
- AVERAGE DEAD IN % (LARVAE) ([4]; 0.003 ppm AI): 5%
- AVERAGE DEAD IN % (LARVAE) ([4]; 0.006 ppm AI): 10%
- AVERAGE DEAD IN % AFTER 8 DAYS ([5]; 0.0125 ppm alone): 5%
- AVERAGE DEAD IN % AFTER 8 DAYS ([5]; 0.025 ppm alone): 23%
- AVERAGE DEAD IN % AFTER 8 DAYS ([5]; 0.05 ppm alone): 38%
- AVERAGE DEAD IN % AFTER 1 DAY ([5]; Emamectin benzoate alone 0.0125 ppm AI): 0%
- AVERAGE DEAD IN % AFTER 1 DAY ([5]; Emamectin benzoate alone 0.025 ppm AI): 8%
- AVERAGE DEAD IN % AFTER 1 DAY ([5]; Emamectin benzoate alone 0.05 ppm AI): 0%
